From paper PMC12053642, “Oral PRI-002 treatment in patients with MCI or mild AD: a randomized, double-blind phase 1b trial” (Nature Communications, 2025)
Square brackets hold non-standard residues; d marks the D form. Peptide text beside a SMILES is read from it.

Tested on: patients with MCI or mild dementia due to AD
Assay: Mini-Mental State Examination (MMSE)
Assay type: in vivo, human
Conditions: 300 mg q.d. oral 28 d
Excerpt: Twenty male and female (not of childbearing potential) patients between 50 and 80 years of age, with a Mini mental state examination (MMSE) score of 22 to 30, CSF biomarkers indicating AD pathology (p-tau >62 pg/ml, total CSF Aβ 1-42/1-40 ratio ≤0.055), a MRI scan in accordance with AD diagnosis not older than 3 months, at least 3 months stable medication prior to screening, were enrolled. Nineteen patients were randomized and data analyzed, one patient dropped out by withdrawal of the informed consent before treatment was initiated. Patients underwent an extensive clinical workup and received a MRI brain scan as well as a lumbar puncture. […] Patients who met any of the following criteria were not eligible for enrollment: History of seizures, stroke or transient ischemic attack, unstable medical, neurological, or psychiatric condition. Current treatment with typical antipsychotic or neuroleptic medication or within 6 months prior to screening. Anticoagulants within 3 months prior to screening, chronic use of opiates or opioids (including long-acting opioid medication) within 3 months prior to screening, stimulant medications (amphetamine, methylphenidate preparations, or modafinil) within 1 month prior to screening and throughout the study, chronic use of benzodiazepines, barbiturates, or hypnotics. […]

CC(C)C[C@@H](NC(=O)[C@H](NC(=O)[C@H]1CCCN1)[C@H](C)O)C(=O)N[C@H](Cc1c[nH]cn1)C(=O)N[C@@H](C(=O)N[C@H](Cc1c[nH]cn1)C(=O)N[C@H](CC(N)=O)C(=O)N[C@H](CCCNC(=N)N)C(=O)N[C@H](CCCNC(=N)N)C(=O)N[C@H](CCCNC(=N)N)C(=O)N[C@H](CCCNC(=N)N)C(=O)N[C@H](CCCNC(=N)N)C(N)=O)[C@H](C)O [PRI-002] (H-[dP][dT][dL][dH][dT][dH][dN][dR][dR][dR][dR][dR]-NH2; N-terminus and C-terminus assumed)
MMSE, Mean (Day 28, n=8): 27.9
MMSE, Mean (Day 56, n=9): 27.2
